Reference: patent publication EP2601188B1, “HEPATITIS C VIRUS INHIBITORS” (Bristol-Myers Squibb Company, priority 2010, dated 2012)
Read-outs that look alike come from different tables or passages of the source.

System: HCV 1b genotype
Assay: HCV Replicon assay (HCV-neo replicon cells, wild-type)
Type: cell-based
Conditions: Hepatitis C virus, HCV 1b genotype replicon
Procedure: An HCV Replicon assay was utilized in the present disclosure, and was prepared, conducted and validated as described in commonly owned PCT/US2006/022197 and in O'Boyle et. al. Antimicrob Agents Chemother. 2005 Apr;49(4):1346-53. Assay methods incorporating luciferase reporters have also been used as described (Apath.com).
HCV-neo replicon cells and replicon cells containing mutations in the NS5A region were used to test the currently described family of compounds. The compounds were determined to have more than 10-fold less inhibitory activity on cells containing mutations than wild-type cells. Thus, the compounds of the present disclosure can be effective in inhibiting the function of the HCV NS5A protein and are understood to be as effective in combinations as previously described in application PCT/US2006/022197 and commonly owned WO/O4014852. Further, the compounds of the present disclosure can be effective against the HCV 1b genotype. It should also be understood that the compounds of the present disclosure can inhibit multiple genotypes of HCV. […] In one embodiment, compounds of the present disclosure are inhibitory versus 1a, 1b, 2a, 2b, 3a, 4a, and 5a genotypes.

[1] = class symbols, read-out: EC50 Range

Structure (SMILES)	EC50 [1] [nM]	EC50 (values in nM, read-out: EC50) [nM]	EC50 (value given in µM, read-out: EC50) [nM]
COc1cccc2c(C(=O)N3CCC[C@H]3C(=O)Nc3cccc(-c4ncc(-c5ccc6[nH]c([C@@H]7CCCN7C(=O)c7nc(Cl)cc8c(OC)cccc78)nc6c5)o4)c3)nc(Cl)cc12 [J.48d, 1-((3-chloro-5-methoxy-1-isoquinolinyl)carbonyl)-N-(3-(5-(2-((2S)-1-((3-chloro-5-methoxy-1-isoquinolinyl)carbonyl)-2-pyrrolidinyl)-1H-benzimidazol-5-yl)-1,3-oxazol-2-yl)phenyl)-L-prolinamide]	100 to 999	147	
COc1cccc2c(C(=O)N3CCC[C@H]3C(=O)Nc3ccc(-c4ncc(-c5ccc6[nH]c([C@@H]7CCCN7C(=O)c7nc(Cl)cc8c(OC)cccc78)nc6c5)o4)cc3)nc(Cl)cc12 [J.50c, 1-((3-chloro-5-methoxy-1-isoquinolinyl)carbonyl)-N-(4-(5-(2-((2S)-1-((3-chloro-5-methoxy-1-isoquinolinyl)carbonyl)-2-pyrrolidinyl)-1H-benzimidazol-5-yl)-1,3-oxazol-2-yl)phenyl)-L-prolinamide]	1000 to 10000		> 10000
O=C(Nc1cccc(-c2cnc(-c3ccc4[nH]c([C@@H]5CCCN5C(=O)CC5CC5)nc4c3)o2)c1)[C@@H]1CCCN1C(=O)CC1CC1 [J.53a, 1-(cyclopropylacetyl)-N-(3-(2-(2-((2S)-1-(cyclopropylacetyl)-2-pyrrolidinyl)-1H-benzimidazol-5-yl)-1,3-oxazol-5-yl)phenyl)-L-prolinamide]	1000 to 10000		
